The results in this text go back to paper PMC10671050, “Alkyl Derivatives of Perylene Photosensitizing Antivirals: Towards Understanding the Influence of Lipophilicity” (International Journal of Molecular Sciences, 2023).

One may read the viability as a read-out of living cells in per cent, often relative to untreated cells. What is called solubility is the dissolved amount per volume that the medium holds. A high value points to a readily soluble substance. What is called EC50 is the concentration that produces a half-maximal response.

The subject of one data set is Vero cells. Put plainly: Light-induced cytotoxicity (photocytotoxicity) in Vero cells. In kind it is cell-based, African Green Monkey. Particulars: blue light 10 min vs daylight, 0–10 µM, 48 h. The procedure: (§1) Subsequently, cells treated with the compounds were irradiated with LEDs (465–480 nm, 30 mW/cm^2) for 10 min at RT. As a negative control, compound-treated cells were incubated for 10 min in daylight at RT. Then, both the irradiated and non-irradiated cell monolayers were incubated at 37 °C in the dark for 48 h. Subsequently, the cell culture medium was aspirated and the cytotoxicity of the tested perylene derivatives was determined based on cell viability using Cell Counting Kit-8 (Dojindo Molecular Technologies, Munich, Germany) according to the manufacturer’s instructions. Note: all manipulation with samples was performed in daylight (Figure 7K).

Experiment in data set [1]: as above
In kind it is cell-based, African Green Monkey. Particulars: African green monkey, Vero cells; blue light 465–480 nm, 10 min, then 48 h; read-out: cell viability of Vero cells after irradiation. On the procedure: as §1

Data set [2] concerns HSV-1, strain MacIntyre. Put plainly: Photodynamic inactivation of HSV-1 (virus treated with compound, plaque assay). It is filed as cell-based, herpes simplex virus-1. Particulars: for HSV-1-inactivating effect after blue light irradiation: 10 µM; for EC50: Human alphaherpesvirus 1, 10 min.
The format of data set [3] is physicochemical. Particulars: methanol, DPBF trap, 450–470 nm, relative to riboflavin.
The nature of data set [4]: Solubilization in 15% DMSO in water. The conditions noted are these: for solubility: aqueous with cosolvent or surfactant or cyclodextrin, kinetic from dmso stock.
Protocol: To perform this measurement, the compound was dissolved in DMSO and then diluted with water to achieve a solution containing 15% DMSO. The solution was centrifuged, and the resulting supernatant was lyophilized (evaporated) to dryness. Subsequently, the dry residue was dissolved in DMSO, and the concentration of the compound dissolved in DMSO was determined spectrophotometrically.
The mixtures were then centrifuged at 20,000 rcf for 5 min; 500 μL of the supernatant were collected and lyophilized; 76 µL of DMSO were added to the dry residue, and the absorbance was measured at the maximum absorption wavelength for compounds in solutions diluted 200 times with methanol. The data obtained were recalculated according to the law of dilutions and Beer’s law to obtain the initial concentrations of the compounds solubilized in 15% DMSO in water.
For another data set, the system named is VSV Indiana strain. Put plainly: microbe, parasite or virus in culture. The conditions noted are these: Vesicular stomatitis virus, HEK-293T, 1 h, read-out: VSV, EC50. It is filed as cell-based, vesicular stomatitis Indiana virus.
Data set [5] has as its system HSV-1, strain MacIntyre. Nature of the data set: HSV-1 titer reduction assay in Vero cells. The conditions noted are these: 10 µM, 48 h; for anti-HSV-1 activity in Vero cells: viral titer in medium supernatant.
Data set [6] is described as follows: Cytotoxicity assay in Vero cells (Cell Counting Kit-8). It is filed as cell-based. The conditions noted are these: African green monkey, 48 h incubation, compared to controls (DMSO-treated cells). On the procedure:
Vero cells were cultured for 24 h in 96-well plates to form a confluent monolayer and then were treated with the tested compounds at concentrations of 50 µM. After 48 h of cultivation in the dark at 37 °C under 5% CO2, the cell culture medium was aspirated. The potential cytotoxicity of the tested derivatives was determined based on cell viability using Cell Counting Kit-8 (Dojindo Molecular Technologies, Munich, Germany) according to the manufacturer’s instructions.

Values after ≈ are worked out from the molar mass of the structure shown. “Also recorded” adds a separate entry of the source. Like-named read-outs stand apart in the source and are kept apart here. Bounds are passed on as bounds.

As for `CCCCCCCCc1ccc2c3cccc4c(C#Cc5cn([C@@H]6O[C@H](CO)[C@@H](O)[C@@H]6O)c(=O)[nH]c5=O)ccc(c5cccc1c52)c43` [Compound 9b, 5-[9(10)-Octylperylen-3-ylethynyl]-arabino-uridine], in the data set on Vero cells, the “photocytotoxicity to Vero cells” value is given as “did not increase the cytotoxicity”. Moreover, the viability at 48 h in data set [1] was in the range of 115 to 128%. In addition, the “HSV-1-inactivating effect after blue light irradiation” value with HSV-1, strain MacIntyre [2] is reported as “complete inactivation of HSV-1”. Further, the “1O2 Quantum Yield” value in data set [3] was found to be 18.6 ± 2.3%. In data set [4] (15% DMSO in water), the “times less effectively dissolved than deoxy- and ribo- analogs (10b, 11b)” value is given as “approximately 1.5 times”. The compound further displayed a solubility in data set [4] of 0.38 µM (≈ 0.24 µg/mL). Also, the EC50 in the data set with VSV Indiana strain lay within 10 to 200 µM. Moreover, in the data set with HSV-1, strain MacIntyre [5], the “anti-HSV-1 activity in Vero cells” value was “only moderately active”.
For `CCCCCCCCCCCCc1ccc2c3cccc4c(C#Cc5cn([C@@H]6O[C@H](CO)[C@@H](O)[C@@H]6O)c(=O)[nH]c5=O)ccc(c5cccc1c52)c43` [Compound 9c, 5-[9(10)-Dodecylperylen-3-ylethynyl]-arabino-uridine], the “photocytotoxicity to Vero cells” value in the data set with Vero cells is “did not increase the cytotoxicity”. Besides, the viability at 48 h in data set [1] was 115 to 128%. Moreover, the “1O2 Quantum Yield” value in data set [3] was determined as 22.5 ± 3.4%. Further, in data set [4], the concentration in solution (solubility) was 0.24 µM (≈ 0.165 µg/mL). Besides, the EC50 with VSV Indiana strain is more than 175 µM. In addition, in the data set on HSV-1, strain MacIntyre [5], the “anti-HSV-1 activity in Vero cells” value was “completely inactive”.
In the case of `CCCCc1ccc2c3cccc4c(C#Cc5cn([C@@H]6O[C@H](CO)[C@@H](O)[C@H]6O)c(=O)[nH]c5=O)ccc(c5cccc1c52)c43` [Compound 10a, 5-[9(10)-Butylperylen-3-ylethynyl]-ribo-uridine], the “Decrease in EC50 (Fold)” value in the data set on HSV-1, strain MacIntyre [2] came out at 20.3 fold. Moreover, the 50% effective concentration (EC50) in the data set with HSV-1, strain MacIntyre [2] (HSV-1 10^4 PFU/mL, 10 min in daylight, plaque assay, read-out: EC50 (µM) in Daylight) is 2.18 µM; in the data set with HSV-1, strain MacIntyre [2] (HSV-1 10^4 PFU/mL, blue light 465–480 nm, 30 mW/cm^2, 10 min, plaque assay, read-out: EC50 (µM) under Blue Light), 0.107 µM; with VSV Indiana strain it was 10 to 200 µM. Moreover, the “1O2 Quantum Yield” value in data set [3] turned out to be 23.1 ± 2.2%. Moreover, the viability at 48 h, 10 µM in data set [6] was approximately 80%. Also, the “solubility in 15% DMSO in water” value in data set [4] (15% DMSO in water) was “lower solubility”. The solubility in data set [4] came out at 0.02 µM (≈ 0.0115 µg/mL). For the same compound, the “viral replication and spread in HSV-1-infected Vero cell culture” value in the data set on HSV-1, strain MacIntyre [5] (inside cell culture (Figure 6C)) is “did not suppress viral replication and spread”. Besides, in the data set with HSV-1, strain MacIntyre [5], the “anti-HSV-1 activity in Vero cells” value is “completely inhibited viral replication; also recorded: higher antiviral potency compared to acyclovir”.
For the compound `CCCCCCCCc1ccc2c3cccc4c(C#Cc5cn([C@H]6C[C@H](O)[C@@H](CO)O6)c(=O)[nH]c5=O)ccc(c5cccc1c52)c43` [Compound 11b, 5-[9(10)-Octylperylen-3-ylethynyl]-deoxy-uridine], the “1O2 Quantum Yield” value in data set [3] is on record as 21.0 ± 2.0%. Moreover, the viability at 48 h, 10 µM in data set [6] was approximately 120%. The compound further registered a solubility in data set [4] of 0.67 µM (≈ 0.412 µg/mL). The EC50 in the data set with VSV Indiana strain was 10 to 200 µM. Moreover, the “anti-HSV-1 activity in Vero cells” value with HSV-1, strain MacIntyre [5] is reported as “only moderately active”.
For `Oc1ccc(C#Cc2ccc3c4cccc5cccc(c6cccc2c63)c54)cc1` [Compound 12, reference compound], the EC50 with HSV-1, strain MacIntyre [2] (read-out: EC50 (µM) under Blue Light) is 0.472 µM; with VSV Indiana strain it was 10 to 200 µM. Also, the viability at 48 h, 10 µM in data set [6] lay in the range of 109 to 122%.
Turning to `Oc1cccc(C#Cc2ccc3c4cccc5cccc(c6cccc2c63)c54)c1` [Compound 13, reference compound], the viability at 48 h, 10 µM in data set [6] is 109 to 122%. Further, the EC50 in the data set on VSV Indiana strain lay within 10 to 200 µM.
On the same counts, the results for `Oc1ccc(C#Cc2ccc3c4cccc5cccc(c6cccc2c63)c54)cc1Br` [Compound 14, reference compound] are 109 to 122% and 10 to 200 µM.
Regarding `CCCCCCCCCCCCc1ccc2c3cccc4c(-c5ccc(C(=O)O)s5)ccc(c5cccc1c25)c43` [Compound 15c, 5-[9(10)-Dodecylperylen-3-yl]thiophene-2-carboxylic acid], the “HSV-1-inactivating effect after blue light irradiation” value with HSV-1, strain MacIntyre [2] is “no virus-inactivating effect”. The “1O2 Quantum Yield” value in data set [3] is listed as 79.8 ± 8.9%. The same compound gave a solubility in data set [4] of 0.05 µM (≈ 0.0273 µg/mL). Moreover, the EC50 in the data set on VSV Indiana strain lay within 10 to 200 µM. In the data set with HSV-1, strain MacIntyre [5], the “anti-HSV-1 activity in Vero cells” value is given as “no anti-HSV-1 activity”.
